The source of these data is patent US8513251B2, “Pyridazinone compounds” (Takeda Pharmaceutical Company Limited, priority 2009, dated 2013).

By inhibition is commonly meant the drop in the measured response relative to a control, in per cent. What is called IC50 is the point on the concentration scale where inhibition reaches its midpoint. Low values mean greater potency in that assay, high ones weaker potency in that assay. One may read the melting point as the temperature, or range, at which the solid turns liquid.

The test system of one data set is Male ICR mice. Description: Improvement of MK-801-induced prepulse inhibition (PPI) deficits. The class given is in vivo. The following applies: 82 dB prepulse; i.p. 30 min before testing; MK-801 0.3 mg/kg s.c. (FIG. 3). An excerpt: Male ICR mice were supplied by CLEA Japan, Inc (Japan). After arrival to the vivarium, animals were allowed a minimum of 1 week for acclimation. They were housed under a 12:12-h light/dark cycle in a temperature- and humidity-controlled laboratory and allowed food and water ad libitum. The care and use of the animals and the experimental protocols used in this research were approved by the Experimental Animal Care and Use Committee of Takeda Pharmaceutical Company, Ltd (Osaka, Japan).
The compounds were suspended in 0.5% methylcellulose in saline or distilled water, and administered by intraperitoneally (i.p.) or orally (p.o.), respectively. Methamphetamine (Dainippon Sumitomo Pharma Co., Ltd.) and MK-801 (Sigma-Aldrich, St Louis, Mo.) were dissolved in saline, and administered subcutaneously (s.c.). […]
PPI is a measure of sensorimotor gating and is one of a few neuropsychological measures in which humans and rodents can be evaluated in a similar fashion (Psychopharmacology (Berl) 2001, vol. 156: 117-154). We evaluated whether compound could reverse PPI deficits induced by MK-801 using male ICR mice. […] Placement of mice inside the cylinders allowed the whole-body startle responses induced by the acoustic stimuli to be measured via the transduction of movement into analog signals by a piezoelectric unit attached to the platform. […]

The next data set has as its target T1, Human PDE10A enzyme (Homo sapiens, UniProt Q9Y233).
T1 construct: Human PDE10A enzyme was generated from Sf9 or COS-7 cells transfected with the full-length gene; His-tag; made in house; host or cells: Sf9 or COS-7 cells
Description: PDE enzyme inhibition, SPA (Scintillation Proximity Assay). The note with it: Table 1; for inhibition at 1 µM: compound at 1 μM, read-out: Percent inhibition (1 μM); for IC50: human PDE10A, [3H]cGMP substrate. In kind it is biochemical. (Scintillation proximity formats need no separation of bound from free tracer.)

T1 sequence (Q9Y233 267-1055): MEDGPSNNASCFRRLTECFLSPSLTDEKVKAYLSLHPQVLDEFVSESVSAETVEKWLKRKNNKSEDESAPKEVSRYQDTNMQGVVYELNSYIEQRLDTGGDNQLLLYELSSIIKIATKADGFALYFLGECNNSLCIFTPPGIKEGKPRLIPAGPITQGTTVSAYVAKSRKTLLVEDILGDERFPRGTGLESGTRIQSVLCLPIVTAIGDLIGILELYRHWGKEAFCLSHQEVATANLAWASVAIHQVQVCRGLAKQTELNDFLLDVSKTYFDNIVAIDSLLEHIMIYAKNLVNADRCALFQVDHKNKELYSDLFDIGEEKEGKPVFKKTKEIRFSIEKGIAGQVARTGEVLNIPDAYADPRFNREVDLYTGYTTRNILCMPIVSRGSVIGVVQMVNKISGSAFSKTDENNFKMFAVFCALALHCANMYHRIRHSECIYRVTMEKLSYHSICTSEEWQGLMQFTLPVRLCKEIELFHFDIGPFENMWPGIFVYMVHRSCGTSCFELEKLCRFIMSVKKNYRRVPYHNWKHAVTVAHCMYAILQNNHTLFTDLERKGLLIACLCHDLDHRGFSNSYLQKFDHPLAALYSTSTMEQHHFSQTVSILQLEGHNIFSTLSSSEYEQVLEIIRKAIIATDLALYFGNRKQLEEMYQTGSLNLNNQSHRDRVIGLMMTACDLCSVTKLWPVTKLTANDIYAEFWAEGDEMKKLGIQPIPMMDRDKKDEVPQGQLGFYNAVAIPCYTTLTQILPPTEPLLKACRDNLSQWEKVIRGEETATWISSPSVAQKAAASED

Turning to `Cc1nc2n(c(=O)c1CCN1CCC(c3noc4cc(F)ccc34)CC1)CCCC2` [Risperidone], the “MK-801-induced PPI deficits” value with Male ICR mice was “significantly reversed”.

In turn, `O=c1ccn(-c2cccc(C(F)(F)F)c2)nc1-c1ccnn1-c1ccccc1` [Example 10, 3-(1-Phenyl-1H-pyrazol-5-yl)-1-[3-(trifluoromethyl)phenyl]pyridazin-4(1H)-one] showed a melting point of 156 to 157 °C. On Human PDE10A enzyme, the inhibition at 1 µM was 98% and the half-inhibitory concentration (IC50) fell in the range of 10 to 200 nM.

`O=c1ccn(-c2ccccc2F)nc1-c1ccnn1-c1ccccc1` [Example 16, 1-(2-Fluorophenyl)-3-(1-phenyl-1H-pyrazol-5-yl)pyridazin-4(1H)-one] gave a melting point of 124 to 125 °C. In addition, at Human PDE10A enzyme, the inhibition at 1 µM amounted to 97% and the half-maximal inhibitory concentration (IC50) lay within 10 to 200 nM.

In turn, `COc1cn(-c2ccc(N3CCOCC3)cc2F)nc(-c2ccnn2-c2ccccc2)c1=O` [Example 57, 1-(2-Fluoro-4-morpholin-4-ylphenyl)-5-methoxy-3-(1-phenyl-1H-pyrazol-5-yl)pyridazin-4(1H)-one] had a melting point of 226 to 228 °C. Besides, at Human PDE10A enzyme, the inhibition at 1 µM came to 101% and the concentration for half-maximal inhibition (IC50) is less than 10 nM.

Take `O=c1ccn(-c2cccc(F)c2)nc1-c1ccnn1-c1ccccc1` [Example 15, 1-(3-Fluorophenyl)-3-(1-phenyl-1H-pyrazol-5-yl)pyridazin-4(1H)-one]: the melting point was 170 to 171 °C. On Human PDE10A enzyme, the inhibition at 1 µM came out at 97% and the IC50 was 10 to 200 nM.
